Values joined by “and” are separate entries in the source; they are usually repeats but may differ in a detail not shown here. Equal entries are not always repeated.
System: HeLa cells
Experiment: Sphingolipid content of treated HeLa cells by quantitative mass spectrometry
Type: cell-based
Details: for Cer16 / Cer18 / Cer20 / Cer22 / Cer24 / Cer24:1 / Cer total / S1P / SM16 / SM18 / SM20 / SM22 / SM24 / SM24:1 / SM total / Sph / ratio total SM/Cer: HeLa, 42h, single replicates; for Cer16 / Cer18 / Cer20 / Cer22 / Cer24 / Cer24:1 / Cer total / S1P / SM16 / SM18 / SM20 / SM22 / SM24 / SM24:1 / SM total / Sph: 500.000 cells per sample
Experimental: 5.2 Cellular experiment for lipidomic analysis
Hela cells were cultured in six well plates (177000 cells per well) under standard growth conditions (DMEM with 4mM L-glutamine, 10% FBS, 1% Penicillin-Streptomycin; CO2 incubator with […]
37°C, 5% CO2). […]
After incubation, […]
the adherent cells were washed twice with ice-cold PBS and harvested by treatment with trypsin.
Cells were counted using a Countess II cell counter ( Invitrogen) and adjusted to 500.000 cells per sample. Each sample was then treated as described below.
6. Details for experimental lipidomics
Cells were subjected to lipid extraction using 1.5 mL methanol/chloroform (2:1, v:v) as described. The extraction solvent contained C17-ceramide (Cer17) and C16 -d31-sphingomyelin (d31-SM16) (both Avanti Polar Lipids, Alabaster, USA) as internal standards. Chromatographic separations were achieved on a 1260 Infinity HPLC (Agilent Technologies, Waldbronn, Germany) equipped with a Poroshell 120 EC-C8 column (3.0 × 150 mm, 2.7 µm; Agilent Technologies). A mobile phase system consisting of water (solvent A) and acetonitrile/methanol (1:1, v:v; solvent B), both acidified with 0.1% formic acid, was used for gradient elution at an initial composition of 40:60 (A:B, v:v) and a flow rate of 0.5 mL/min. MS/MS analyses were carried out using a 6490 triple-quadrupole mass spectrometer (Agilent Technologies) operating in the positive electrospray ionization mode (ESI+). The following ion source parameters were set: sheath gas temperature, 375 °C; sheath gas flow, 12 L/min of nitrogen; nebulizer pressure, 30 psi; drying gas temperature, 200 °C; drying gas flow, 15 L/min of nitrogen; capillary voltage, 4000 V; nozzle voltage, 1500 V; iFunnel high pressure RF voltage, 150 V and iFunnel low pressure RF voltage, 60 V. The following mass transitions were recorded (collision energies of 25 eV for all transitions): ceramides: m/z […]
with MassHunter Software (Agilent Technologies). Significance of differences between two samples was calculated by student’s t -test. Asterisks indicate significant differences between treated and untreated samples: * p<0.05; ** p<0.01; *** p<0.005.
Table S1. Sphingolipid content of treated cells.
(1 picture or pasted object on this page, not shown here)

CC1=NN(c2ccc(C)c(C)c2)C(=O)/C1=N\Nc1cccc(-c2cccc(C(=O)O)c2)c1O [17C9, Eltrombopag]
effect on SM/Cer rate (HeLa cells): dramatically increased | effect on total sphingomyelin (HeLa cells, 48 hours, serum-reduced medium): no significant changes | Cer16 (1 µM): 34,40 pmol/sample and 29,98 pmol/sample and 31,42 pmol/sample | Cer18 (1 µM): 3,09 pmol/sample and 3,68 pmol/sample and 2,62 pmol/sample | Cer20 (1 µM): 0,85 pmol/sample and 3,45 pmol/sample and 0,80 pmol/sample | Cer22 (1 µM): 6,25 pmol/sample and 5,55 pmol/sample and 6,14 pmol/sample | Cer24 (1 µM): 18,45 pmol/sample and 16,72 pmol/sample and 19,49 pmol/sample | Cer24:1 (1 µM): 39,87 pmol/sample and 35,52 pmol/sample and 38,79 pmol/sample | Cer total (1 µM): 102,91 pmol/sample and 96,34 pmol/sample and 97,82 pmol/sample | S1P (1 µM): 1,15 pmol/sample and 1,32 pmol/sample and 1,00 pmol/sample | SM16 (1 µM): 1737,34 pmol/sample and 1866,45 pmol/sample and 1725,36 pmol/sample | SM18 (1 µM): 50,83 pmol/sample and 50,55 pmol/sample and 45,45 pmol/sample | SM20 (1 µM): 17,12 pmol/sample and 16,70 pmol/sample and 15,18 pmol/sample | SM22 (1 µM): 108,33 pmol/sample and 106,97 pmol/sample and 93,72 pmol/sample | SM24 (1 µM): 172,22 pmol/sample and 163,43 pmol/sample and 147,49 pmol/sample | SM24:1 (1 µM): 788,48 pmol/sample and 772,38 pmol/sample and 712,32 pmol/sample | SM total (1 µM): 2874,32 pmol/sample and 2976,47 pmol/sample and 2739,52 pmol/sample | Sph (1 µM): 3,11 pmol/sample and 2,70 pmol/sample and 4,01 pmol/sample | ratio total SM/Cer (1 µM): 29,4 and 28,9 and 28,4 | Cer16 (2.5 µM): 32,36 pmol/sample and 33,19 pmol/sample and 28,45 pmol/sample | Cer18 (2.5 µM): 3,43 pmol/sample and 3,27 pmol/sample and 2,51 pmol/sample | Cer20 (2.5 µM): 2,29 pmol/sample and 1,23 pmol/sample and 0,90 pmol/sample | Cer22 (2.5 µM): 6,89 pmol/sample and 6,59 pmol/sample and 5,14 pmol/sample | Cer24 (2.5 µM): 19,23 pmol/sample and 20,44 pmol/sample and 16,88 pmol/sample | Cer24:1 (2.5 µM): 39,53 pmol/sample and 38,37 pmol/sample and 33,82 pmol/sample | Cer total (2.5 µM): 103,73 pmol/sample and 103,08 pmol/sample and 87,70 pmol/sample | S1P (2.5 µM): 1,23 pmol/sample and 1,05 pmol/sample and 1,02 pmol/sample | SM16 (2.5 µM): 1702,42 pmol/sample and 1763,99 pmol/sample and 1597,48 pmol/sample | SM18 (2.5 µM): 47,65 pmol/sample and 51,14 pmol/sample and 44,81 pmol/sample | SM20 (2.5 µM): 15,77 pmol/sample and 16,69 pmol/sample and 14,30 pmol/sample | SM22 (2.5 µM): 97,64 pmol/sample and 104,36 pmol/sample and 90,89 pmol/sample | SM24 (2.5 µM): 148,54 pmol/sample and 158,37 pmol/sample and 140,98 pmol/sample | SM24:1 (2.5 µM): 659,70 pmol/sample and 706,74 pmol/sample and 726,62 pmol/sample | SM total (2.5 µM): 2548,15 pmol/sample and 2718,76 pmol/sample and 2821,17 pmol/sample | Sph (2.5 µM): 4,57 pmol/sample and 3,32 pmol/sample and 3,82 pmol/sample | ratio total SM/Cer (2.5 µM): 29,1 and 26,2 and 27,4 | Cer16 (5 µM): 29,49 pmol/sample and 35,89 pmol/sample and 33,40 pmol/sample | Cer18 (5 µM): 2,38 pmol/sample and 3,05 pmol/sample and 2,58 pmol/sample | Cer20 (5 µM): 0,79 pmol/sample and 0,94 pmol/sample and 0,73 pmol/sample | Cer22 (5 µM): 4,97 pmol/sample and 6,52 pmol/sample and 6,08 pmol/sample | Cer24 (5 µM): 18,36 pmol/sample and 21,85 pmol/sample and 21,93 pmol/sample | Cer24:1 (5 µM): 34,90 pmol/sample and 40,79 pmol/sample and 38,77 pmol/sample | Cer total (5 µM): 90,90 pmol/sample and 109,04 pmol/sample and 103,49 pmol/sample | S1P (5 µM): 0,97 pmol/sample and 0,93 pmol/sample and 0,94 pmol/sample | SM16 (5 µM): 1510,97 pmol/sample and 1730,88 pmol/sample and 1785,73 pmol/sample | SM18 (5 µM): 45,08 pmol/sample and 52,99 pmol/sample and 49,27 pmol/sample | SM20 (5 µM): 14,34 pmol/sample and 17,35 pmol/sample and 16,52 pmol/sample | SM22 (5 µM): 86,79 pmol/sample and 107,23 pmol/sample and 102,55 pmol/sample | SM24 (5 µM): 143,47 pmol/sample and 171,51 pmol/sample and 164,74 pmol/sample | SM24:1 (5 µM): 606,54 pmol/sample and 703,57 pmol/sample and 702,64 pmol/sample | SM total (5 µM): 2407,20 pmol/sample and 2783,54 pmol/sample and 2821,45 pmol/sample | Sph (5 µM): 3,92 pmol/sample and 3,79 pmol/sample and 3,72 pmol/sample | ratio total SM/Cer (5 µM): 26,5 and 25,5 and 27,3

CCCCCCCCCCCC(=O)NC(CO)CC(O)c1ccccc1 (centres unmarked) [HPA-12, N-(3Hydroxy-1-hydroxymethyl-3-phenylpropyl)-dodecamide]
Cer16 (1 µM): 48,20 pmol/sample and 45,94 pmol/sample and 44,92 pmol/sample | Cer18 (1 µM): 3,35 pmol/sample and 2,85 pmol/sample and 3,38 pmol/sample | Cer20 (1 µM): 1,15 pmol/sample and 0,88 pmol/sample and 1,18 pmol/sample | Cer22 (1 µM): 8,47 pmol/sample and 7,59 pmol/sample and 8,53 pmol/sample | Cer24 (1 µM): 25,47 pmol/sample and 26,70 pmol/sample and 25,58 pmol/sample | Cer24:1 (1 µM): 64,01 pmol/sample and 60,79 pmol/sample and 68,53 pmol/sample | Cer total (1 µM): 150,65 pmol/sample and 143,74 pmol/sample and 153,13 pmol/sample | S1P (1 µM): 1,34 pmol/sample and 1,27 pmol/sample and 1,52 pmol/sample | SM16 (1 µM): 1695,91 pmol/sample and 1668,53 pmol/sample and 1609,69 pmol/sample | SM18 (1 µM): 47,55 pmol/sample and 44,39 pmol/sample and 46,43 pmol/sample | SM20 (1 µM): 15,20 pmol/sample and 14,34 pmol/sample and 14,30 pmol/sample | SM22 (1 µM): 91,42 pmol/sample and 86,76 pmol/sample and 85,97 pmol/sample | SM24 (1 µM): 147,79 pmol/sample and 134,40 pmol/sample and 140,17 pmol/sample | SM24:1 (1 µM): 708,14 pmol/sample and 660,22 pmol/sample and 659,25 pmol/sample | SM total (1 µM): 2706,02 pmol/sample and 2608,64 pmol/sample and 2555,82 pmol/sample | Sph (1 µM): 3,87 pmol/sample and 3,57 pmol/sample and 3,94 pmol/sample | ratio total SM/Cer (1 µM): 17,7 and 17,3 and 17,8 | Cer16 (2.5 µM): 45,72 pmol/sample and 45,34 pmol/sample and 45,94 pmol/sample | Cer18 (2.5 µM): 2,82 pmol/sample and 3,05 pmol/sample and 2,77 pmol/sample | Cer20 (2.5 µM): 0,99 pmol/sample and 0,90 pmol/sample and 0,94 pmol/sample | Cer22 (2.5 µM): 8,93 pmol/sample (2×) and 7,27 pmol/sample | Cer24 (2.5 µM): 29,39 pmol/sample and 22,20 pmol/sample and 31,70 pmol/sample | Cer24:1 (2.5 µM): 64,09 pmol/sample and 55,48 pmol/sample and 66,75 pmol/sample | Cer total (2.5 µM): 151,94 pmol/sample and 134,23 pmol/sample and 157,03 pmol/sample | S1P (2.5 µM): 1,60 pmol/sample and 1,73 pmol/sample and 1,58 pmol/sample | SM16 (2.5 µM): 1489,44 pmol/sample and 1440,97 pmol/sample and 1448,69 pmol/sample | SM18 (2.5 µM): 53,85 pmol/sample and 43,84 pmol/sample and 45,37 pmol/sample | SM20 (2.5 µM): 20,27 pmol/sample and 13,88 pmol/sample and 14,55 pmol/sample | SM22 (2.5 µM): 75,95 pmol/sample and 76,48 pmol/sample and 75,20 pmol/sample | SM24 (2.5 µM): 129,06 pmol/sample and 114,60 pmol/sample and 121,10 pmol/sample | SM24:1 (2.5 µM): 524,32 pmol/sample and 581,92 pmol/sample and 555,40 pmol/sample | SM total (2.5 µM): 2229,23 pmol/sample and 2350,50 pmol/sample and 2245,18 pmol/sample | Sph (2.5 µM): 2,13 pmol/sample and 3,27 pmol/sample and 2,40 pmol/sample | ratio total SM/Cer (2.5 µM): 14,2 and 15,5 and 16,7 | Cer16 (5 µM): 43,83 pmol/sample and 46,26 pmol/sample and 43,34 pmol/sample | Cer18 (5 µM): 2,50 pmol/sample and 2,62 pmol/sample and 2,51 pmol/sample | Cer20 (5 µM): 0,74 pmol/sample and 0,81 pmol/sample and 0,73 pmol/sample | Cer22 (5 µM): 6,88 pmol/sample and 6,54 pmol/sample and 6,85 pmol/sample | Cer24 (5 µM): 20,93 pmol/sample and 21,64 pmol/sample and 23,60 pmol/sample | Cer24:1 (5 µM): 53,37 pmol/sample and 55,90 pmol/sample and 57,30 pmol/sample | Cer total (5 µM): 128,26 pmol/sample and 133,78 pmol/sample and 134,34 pmol/sample | S1P (5 µM): 1,43 pmol/sample and 1,97 pmol/sample and 1,45 pmol/sample | SM16 (5 µM): 1306,31 pmol/sample and 1249,58 pmol/sample and 1356,77 pmol/sample | SM18 (5 µM): 41,78 pmol/sample and 39,06 pmol/sample and 41,13 pmol/sample | SM20 (5 µM): 12,76 pmol/sample and 12,48 pmol/sample and 12,54 pmol/sample | SM22 (5 µM): 68,87 pmol/sample and 67,07 pmol/sample and 70,68 pmol/sample | SM24 (5 µM): 101,53 pmol/sample and 101,48 pmol/sample and 113,95 pmol/sample | SM24:1 (5 µM): 471,40 pmol/sample and 487,46 pmol/sample and 521,22 pmol/sample | SM total (5 µM): 2002,66 pmol/sample and 1957,13 pmol/sample and 2116,29 pmol/sample | Sph (5 µM): 3,33 pmol/sample and 3,81 pmol/sample and 3,47 pmol/sample | ratio total SM/Cer (5 µM): 15,6 and 14,6 and 15,8

— publication PMC7756341, “Liposomal FRET Assay Identifies Potent Drug‐Like Inhibitors of the Ceramide Transport Protein (CERT)” (Chemistry (Weinheim an Der Bergstrasse, Germany), 2020)
